In patent publication US10005733B2, “N-(4-hydroxy-4-methyl-cyclohexyl)-4-phenyl-benzenesulfonamide and N-(4-hydroxy-4-methyl-cyclohexyl)-4-(2-pyridyl)-benzenesulfonamide compounds and their therapeutic use” (PIMCO 2664 LIMITED, priority 2014, dated 2018):
pIC50: −log10 of the molar value.

Tested on: human primary osteoclasts
Assay: Human Primary Osteoclastogenesis (TRAP-positive multinucleated cells from CD14+ monocytes)
Assay type: cell-based
Conditions: compound added on Day 4 of monocyte differentiation; for pIC50: Homo sapiens, Osteoclast, 96 h
Protocol: In vitro potency of test compounds was determined by incubating them with human primary monocytes and assessing effects on the formation of mature osteoclasts.
The activity of the compounds in reducing the formation of human primary osteoclasts (osteoclastogenesis) was tested using monocytes derived from human whole blood. Monocytes, which are positive for the cell surface marker CD14, are part of the innate immune system found in the circulation. Peripheral blood monocytes differentiate to form several cell types, including osteoclasts. Human primary osteoclasts were […] macrophage colony-stimulating factor (M-CSF) and RANKL+10% foetal calf serum for approximately 6 days, with the exact duration depending on the individual donor of the cells.
When monocytes are cultured under the conditions described above, they form large, multinucleated cells (osteoclasts), which stain positively for tartrate-resistant acid phosphatase (TRAP). TRAP staining was performed between Days 5-6 of culture depending on the individual donor. Osteoclasts are identified as cells which stain positive for TRAP and contain more than 3 nuclei. Compounds which reduce the number of TRAP-positive cells reduce the formation of osteoclasts. The bisphosphonate compound, alendronate, which is used in the treatment of osteoporosis, is used as a positive control for reducing osteoclastogenesis in this assay.
Effects on osteoclast formation were assessed by staining for TRAP and counting cells containing more than three nuclei in each well under a microscope. This allows the absolute determination of cell number in each treated well.
PBMCs (peripheral blood mononuclear cells) were collected from healthy donors and isolated by centrifugation on a layer of Ficoll Paque (GE Healthcare, UK). Monocytes were then sorted from the PBMCs using an autoMACS Pro Separator (MiltenyiBiotec), which sorts cells depending on the markers present on their cell surface. The resulting CD14+ monocytes were resuspended in αMEM supplemented with 10% FCS, 25 ng/mL M-CSF and 100 ng/ml RANKL and added to a 48-well plate, which was then incubated for up to 6 days at 37° C./5% CO2. […] The medium was replenished every 2 days.
At the end of the culture period, the medium was removed from the cells and the cells were fixed at room temperature and then washed with phosphate-buffered saline. TRAP staining solution was then added and the cells incubated at 37° C. until a red colour had developed, after which the reaction was stopped by rinsing with water. The stained cells were air-dried and then photographed using a conventional microscope and the TRAP-positive multinucleated osteoclasts counted by two independent observers.
The average results (n=6) for each concentration of test compound were averaged between the two observers and then expressed as a fold change versus the average control value. The data were then plotted graphically using software from Grafit (Erithacus Software).

Row | Structure (SMILES) | % reduction at 1 μM [%] | pIC50
1 | C[C@]1(O)CC[C@H](NS(=O)(=O)c2ccc(-c3ccc(F)cc3F)cc2)CC1 [ABD900] | 90 | 6.43
2 | C[C@]1(O)CC[C@@H](NS(=O)(=O)c2ccc(-c3ccc(C#N)cc3)c(F)c2)CC1 [HMC-C-07-B, 4′-Cyano-2-fluoro-N-((1s,4s)-4-hydroxy-4-methylcyclohexyl)-[1,1′-biphenyl]-4-sulfonamide] | 90 | 6.92
